Laboratory results from patent US20250241890A1, “1,4-DIUREAS AND 1,4-DITHIOUREAS AND USES THEREOF” (Purdue Research Foundation, priority 2024, published 2025).
Entries after “also recorded” stand apart in the source; their conditions may differ.

Key:
α-synuclein (α-syn) [1] = target: T1, α-synuclein (α-syn) (Homo sapiens, UniProt P37840); experiment: Thioflavin T (ThT) fluorescence assay of α-syn fibril formation; format: biochemical; conditions: compounds at 100 μM; for % ThT intensity (100 μM), maximum ThT intensity in percentage / remaining activity at 100 µM: α-syn 2 μM final concentration, average of three replicates with SEM; for remaining activity at 100 µM: read-out: % ThT intensity (100 μM), maximum ThT intensity in percentage; for maximum thioflavin T (ThT) intensity in percentage: α-syn 6 μM final concentration, average of three replicates
T1 construct: purchased rPeptide (Watkinsville, GA)
Experimental: Chemical and peptide source. Dimethylsulfoxide (DMSO) and thioflavin-T (ThT) were purchased from Alfa Aesar (Ward Hill, MA). Recombinant α-synuclein (α-syn) was procured from rPeptide (WatKinsville, GA). The recombinant p-tau isoform 1N4R was prepared as published previously (Fortin et al. 2021, Sui et al. 2015, Liu et al. 2020). Concerning the preparation of tau 0N4R, a bacterial expression plasmid consisting of the vector pET30a carrying a cDNA encoding the human Tau 0N4R isoform was a kind gift of Dr. Benjamin Wolozin (Boston University). E. coli stock (Rosetta BL21 E. coli (CamR) containing pET30a [0N4R tau wt] (KanR)) was grown in LB medium supplemented with kanamycin (50 μg/mL) and chloramphenicol (50 μg/mL). Protein over-expression was induced by the addition of 1 mM IPTG for ˜18 hours at 37° C., and cells were pelleted by centrifugation at 6,000 g for 15 minutes at 4° C. The cells were resuspended in lysis buffer (10 mM Hepes, pH 7.4, 50 mM NaCl, 1 mM MgCl2, 1 mM PMSF, 1× PIC, and 0.5 mM DTT) and lysed by sonication at 30 seconds “On” and 1 minute “Off” at ˜30-45% power for ˜3-5 minutes. Lysate was centrifuged at 10,000 rpm for 10 minutes at 4° C., and supernatant was transferred with 7.8 ml (total) of 3M NaCl. The lysate was incubated for 10 minutes in 80° C. water bath, then cooled for 10 minutes in an ice bath. The lysate was centrifuged at 10,000 rpm at 4° C. for 10 minutes, and the supernatant was transferred to a new tube. The supernatant was dialyzed overnight against cation exchange buffer (50 mM MES, […], 1 mM DTT, pH 6.0). The dialysate was loaded onto a HiPrep SP HP column, and proteins were eluted with a linear gradient ranging from 50 mM to 1 M NaCl. General Characterizations. ^1H and ^13C {1H} NMR spectra were recorded using a 500 MHz Bruker instrument working at a frequency of 500 MHz for ^1H and at 126 MHz for ^13C. Chemical shifts are reported in ppm using residual solvent resonances as internal reference (δ 2.50 and δ 39.51 for ^1H and ^13C in DMSO-d6, respectively). ^1H NMR data are reported as follows. b=broad, s=singlet, d=doublet, t=triplet, q=quartet, and m=multiplet. Coupling constants are given in hertz. The purity of all compounds and synthetic intermediates was judged to be 95% or better based on ^1H NMR. IR measurements were performed in a Nicolet FTIR as thin films in the Purdue Drug Discovery facility. High-resolution mass spectrometry analyses were conducted at the MSU Mass Spectrometry facility. Thioflavin fluorescence assays. […] The recombinant α-syn obtained from rPeptide has been validated with proper quality control to confirm the monomeric state of the protein. Kinetics of fibril formation have been performed using ThT as published previously.^6, 12, 13, 24 The fluorescence emission experiments were performed with the excitation and emission wavelengths set at 440 and 485 nm, respectively, with a Synergy HT multi-mode microplate reader (BioTek, Winooski, VT). Samples were measured in three replicates. Experiments were repeated three times using different α-syn stock solutions. For each time point, arbitrary units of fluorescence were calculated from the mean values normalized against the maximum value. The percentage of fluorescence intensity at the plateau phase in Table 1 was expressed as mean #SEM. Concerning the dose response curve depicted in FIG. 2, the data were plotted using GraphPad Prism. Photo-induced Cross-linking of Unmodified Proteins (PICUP) Assay. To induce oligomerization by cross-linking, α-syn (from Rpeptide, LLC) was diluted in 10 mM phosphate buffer (pH 7.4) to reach a final concentration of 50 μM. Different compounds were added to the protein solution at a final concentration of 50 μM, resulting in a molar ratio of 1:1. PICUP assays were performed with the following controls: samples without light exposition, without Ru(bpy) or ammonium persulfate, and without compound (i.e., 0.125% DMSO). […]

α-synuclein (α-syn) [2] = target: T1, α-synuclein (α-syn); experiment: PICUP assay of α-syn oligomer formation; format: biochemical; conditions: α-syn 60 μM, compound 50 μM (~molar ratio 1:1)
Experimental: Chemical and peptide source. Dimethylsulfoxide (DMSO) and thioflavin-T (ThT) were purchased from Alfa Aesar (Ward Hill, MA). Recombinant α-synuclein (α-syn) was procured from rPeptide (WatKinsville, GA). The recombinant p-tau isoform 1N4R was prepared as published previously (Fortin et al. 2021, Sui et al. 2015, Liu et al. 2020). Concerning the preparation of tau 0N4R, a bacterial expression plasmid consisting of the vector pET30a carrying a cDNA encoding the human Tau 0N4R isoform was a kind gift of Dr. Benjamin Wolozin (Boston University). E. coli stock (Rosetta BL21 E. coli (CamR) containing pET30a [0N4R tau wt] (KanR)) was grown in LB medium supplemented with kanamycin (50 μg/mL) and chloramphenicol (50 μg/mL). Protein over-expression was induced by the addition of 1 mM IPTG for ˜18 hours at 37° C., and cells were pelleted by centrifugation at 6,000 g for 15 minutes at 4° C. The cells were resuspended in lysis buffer (10 mM Hepes, pH 7.4, 50 mM NaCl, 1 mM MgCl2, 1 mM PMSF, 1× PIC, and 0.5 mM DTT) and lysed by sonication at 30 seconds “On” and 1 minute “Off” at ˜30-45% power for ˜3-5 minutes. Lysate was centrifuged at 10,000 rpm for 10 minutes at 4° C., and supernatant was transferred with 7.8 ml (total) of 3M NaCl. The lysate was incubated for 10 minutes in 80° C. water bath, then cooled for 10 minutes in an ice bath. The lysate was centrifuged at 10,000 rpm at 4° C. for 10 minutes, and the supernatant was transferred to a new tube. The supernatant was dialyzed overnight against cation exchange buffer (50 mM MES, […], 1 mM DTT, pH 6.0). The dialysate was loaded onto a HiPrep SP HP column, and proteins were eluted with a linear gradient ranging from 50 mM to 1 M NaCl. General Characterizations. ^1H and ^13C {1H} NMR spectra were recorded using a 500 MHz Bruker instrument working at a frequency of 500 MHz for ^1H and at 126 MHz for ^13C. Chemical shifts are reported in ppm using residual solvent resonances as internal reference (δ 2.50 and δ 39.51 for ^1H and ^13C in DMSO-d6, respectively). ^1H NMR data are reported as follows. b=broad, s=singlet, d=doublet, t=triplet, q=quartet, and m=multiplet. Coupling constants are given in hertz. The purity of all compounds and synthetic intermediates was judged to be 95% or better based on ^1H NMR. IR measurements were performed in a Nicolet FTIR as thin films in the Purdue Drug Discovery facility. High-resolution mass spectrometry analyses were conducted at the MSU Mass Spectrometry facility. Thioflavin fluorescence assays. Thioflavin fluorescence assays were used to monitor fibril formation of commercial recombinant α-syn at a final concentration of 2 μM and treated with control DMSO and different compounds. The recombinant α-syn obtained from rPeptide has been validated with proper quality control to confirm the monomeric state of the protein. Kinetics of fibril formation have been performed using ThT as published previously.^6, 12, 13, 24 The fluorescence emission experiments were performed with the excitation and emission wavelengths set at 440 and 485 nm, respectively, with a Synergy HT multi-mode microplate reader (BioTek, Winooski, VT). Samples were measured in three replicates. Experiments were repeated three times using different α-syn stock solutions. For each time point, arbitrary units of fluorescence were calculated from the mean values normalized against the maximum value. The percentage of fluorescence intensity at the plateau phase in Table 1 was expressed as mean #SEM. Concerning the dose response curve depicted in FIG. 2, the data were plotted using GraphPad Prism. Photo-induced Cross-linking of Unmodified Proteins (PICUP) Assay. […] Different compounds were added to the protein solution at a final concentration of 50 μM, resulting in a molar ratio of 1:1. PICUP assays were performed with the following controls: samples without light exposition, without Ru(bpy) or ammonium persulfate, and without compound (i.e., 0.125% DMSO). […]

1,1′-(1,4-phenylene)bis(3-(pyridin-4-yl)urea) [Compound 19]
% ThT intensity (100 μM), maximum ThT intensity in percentage (α-synuclein (α-syn) [1]): 19 41.6 ± 3.6%

1,1′-(1,4-phenylene)bis(3-cyclohexylthiourea) [Compound 20]
% ThT intensity (100 μM), maximum ThT intensity in percentage (α-synuclein (α-syn) [1]): 20 85% ± <15

Nc1cccc2[nH]ccc12 [4-aminoindole, reference compound]
effect on α-syn oligomer formation (high molecular weight bands) by PICUP (α-synuclein (α-syn) [2]): abrogated the formation of high molecular weight bands

Nc1ccc2[nH]ccc2c1 [5-aminoindole, reference compound]
effect on α-syn oligomer formation (high molecular weight bands) by PICUP (α-synuclein (α-syn) [2]): abrogated the formation of high molecular weight bands

Nc1ccc2cc[nH]c2c1 [6-aminoindole, reference compound]
effect on α-syn oligomer formation (high molecular weight bands) by PICUP (α-synuclein (α-syn) [2]): abrogated the formation of high molecular weight bands

O=C(Nc1ccc(NC(=O)Nc2ccc3[nH]ccc3c2)cc1)Nc1ccc2[nH]ccc2c1 [Compound 3, 3-(1H-indol-5-yl)-1-(4-{[(1H-indol-5-yl)carbamoyl]amino}phenyl)urea]
remaining activity at 100 µM (α-synuclein (α-syn) [1]): 57%
effect on α-syn oligomer formation (high molecular weight bands) by PICUP (α-synuclein (α-syn) [2]): mediocre; also recorded: reduced slightly

O=C(Nc1ccccc1)Nc1ccc(NC(=O)Nc2ccccc2)cc1 [Compound 9, 1-phenyl-3-{4-[(phenylcarbamoyl)amino]phenyl}urea]
remaining activity at 100 µM (α-synuclein (α-syn) [1]): 93.5%

S=C(Nc1ccccc1)Nc1ccc(NC(=S)Nc2ccccc2)cc1 [Compound 10, 1-phenyl-3-{4-[(phenylcarbamothioyl)amino]phenyl}thiourea]
remaining activity at 100 µM (α-synuclein (α-syn) [1]): 94%

O=C(Nc1ccccc1)Nc1cccc(NC(=O)Nc2ccccc2)c1 [Compound 11, 3-phenyl-1-{3-[(phenylcarbamoyl)amino]phenyl}urea]
maximum thioflavin T (ThT) intensity in percentage (α-synuclein (α-syn) [1]): Compound 11 108.6 ± 4.7%

O=C(Nc1cccc(NC(=O)Nc2cccc3[nH]ccc23)c1)Nc1cccc2[nH]ccc12 [Compound 12, 3-(1H-indol-4-yl)-1-(3-{[(1H-indol-4-yl)carbamoyl]amino}phenyl)urea]
maximum thioflavin T (ThT) intensity in percentage (α-synuclein (α-syn) [1]): Compound 12 8.8 ± 0.2%

O=C(Nc1cccc(NC(=O)Nc2ccc3[nH]ccc3c2)c1)Nc1ccc2[nH]ccc2c1 [Compound 13, 3-(1H-indol-5-yl)-1-(3-{[(1H-indol-5-yl)carbamoyl]amino}phenyl)urea]
maximum thioflavin T (ThT) intensity in percentage (α-synuclein (α-syn) [1]): Compound 13 27.7 ± 2.9%

O=C(Nc1cccc(NC(=O)Nc2ccc3cc[nH]c3c2)c1)Nc1ccc2cc[nH]c2c1 [Compound 14, 3-(1H-indol-6-yl)-1-(3-{[(1H-indol-6-yl)carbamoyl]amino}phenyl)urea]
maximum thioflavin T (ThT) intensity in percentage (α-synuclein (α-syn) [1]): Compound 14 12.4 ± 1.8%

O=C(Nc1cccc(NC(=O)Nc2cccc3[nH]ccc23)c1)Nc1cccc2[nH]ccc12 [Compound 15, 3-(1H-indol-4-yl)-1-(3-{[(1H-indol-4-yl)carbamoyl]amino}phenyl)urea]
maximum thioflavin T (ThT) intensity in percentage (α-synuclein (α-syn) [1]): Compound 15 28.1 ± 2.1%

Cc1c(NC(=O)Nc2cccc3[nH]ccc23)cccc1NC(=O)Nc1cccc2[nH]ccc12 [Compound 16, 3-(1H-indol-4-yl)-1-(3-{[(1H-indol-4-yl)carbamoyl]amino}-2-methylphenyl)urea]
maximum thioflavin T (ThT) intensity in percentage (α-synuclein (α-syn) [1]): Compound 16 23.4 ± 0.2%

Cc1c(NC(=O)Nc2ccc3[nH]ccc3c2)cccc1NC(=O)Nc1ccc2[nH]ccc2c1 [Compound 17, 3-(1H-indol-5-yl)-1-(3-{[(1H-indol-5-yl)carbamoyl]amino}-2-methylphenyl)urea]
maximum thioflavin T (ThT) intensity in percentage (α-synuclein (α-syn) [1]): Compound 17 116.4 ± 8.8%

Cc1c(NC(=O)Nc2ccc3cc[nH]c3c2)cccc1NC(=O)Nc1ccc2cc[nH]c2c1 [Compound 18, 3-(1H-indol-6-yl)-1-(3-{[(1H-indol-6-yl)carbamoyl]amino}-2-methylphenyl)urea]
maximum thioflavin T (ThT) intensity in percentage (α-synuclein (α-syn) [1]): Compound 18 49.7 ± 5.0%

O=C(Nc1cccc2[nH]ccc12)N[C@H]1CC[C@H](NC(=O)Nc2cccc3[nH]ccc23)CC1 [Compound 21, 1,1′-((1R,4R)-cyclohexane-1,4-diyl)bis(3-(1H-indol-4-yl)urea)]
remaining activity at 100 µM (α-synuclein (α-syn) [1]): 91.6%

Cc1c(NC(=O)Nc2ccc(N3CCOCC3)cc2)cccc1NC(=O)Nc1ccc(N2CCOCC2)cc1 [Compound 22, 1,1′-(2-methyl-1,3-phenylene)bis(3-(4-morpholinophenyl)urea)]
remaining activity at 100 µM (α-synuclein (α-syn) [1]): 93.5%
